The source of these data is ChEMBL document CHEMBL1122466, “Synthesis of partially modified retro-inverso substance P analogues and their biological activity” (1983).

The species named for assay [1] is Cavia porcellus. Briefly: Relative potency in guinea pig ileum assay. Type of assay: functional.
The species entered for assay [2] is Cavia porcellus. Nature of the assay: ED50 represents the concentration of the agonist in the organ bath corresponding to 50% of the maximal measured spasmogenic effect. The format is functional.

Residues, ends and D or L forms follow the SMILES beside them.

In the assay filed under Cavia porcellus [1], `CSCC[C@@H](NC(=O)[C@H](CC(C)C)NC(=O)CC(=O)N[C@H](Cc1ccccc1)NC(=O)[C@@H](Cc1ccccc1)NC(=O)[C@@H]1CCC(=O)N1)C(N)=O` showed a Relative potency of 22. The compound further displayed an ED50 in the assay listed under Cavia porcellus [2] of 0.9 nM.

Regarding `CSCC[C@H](NC(=O)[C@H](CC(C)C)NC(=O)CNC(=O)[C@H](Cc1ccccc1)NC(=O)[C@@H](Cc1ccccc1)C(=O)N[C@@H]1CCC(=O)N1)C(N)=O` (HELM PEPTIDE1{[O=C1CC[C@@H](NC(=O)[C@H](Cc2ccccc2)C(=O)[*:2])N1].F.G.L.M.[am]}$$$$V2.0), the Relative potency in the assay filed under Cavia porcellus [1] is listed as <0.01.
